{"source": "patent US9676758B2", "about": "“1-heteroaryl-indoline-4-carboxamides as modulators of GPR52 useful for the treatment or prevention of disorders related thereto” (Arena Pharmaceuticals, Inc., priority 2015, dated 2017)", "key": {"male Sprague-Dawley rats": {"tested_on": "male Sprague-Dawley rats", "experiment": "Catalepsy (vertical grid) in rats", "type": "in vivo, rat", "details": "Compound 13 5-100 mg/kg P.O., haloperidol 0.1, 0.3, or 1 mg/kg S.C., 45 minutes post-dose", "experimental": "Catalepsy is used as a model for detecting extrapyramidal side effects of antipsychotic drugs. […] The rats were removed from home cages 45 minutes later and placed on a vertical stainless steel grid, and the latency to move both forepaws from their starting position was measured for a maximum of 30 seconds. The test was repeated three times consecutively.\nCatalepsy is expressed as the average latency to move both forepaws over the three trials. Latency increased in the rats administered haloperidol (see FIG. 27B), but was unchanged in rats administered Compound 13 (see FIG. 27A)."}, "male Sprague Dawley rats": {"tested_on": "male Sprague Dawley rats", "experiment": "Plasma prolactin levels in rats (ELISA)", "type": "in vivo, rat", "details": "basal prolactin release, haloperidol 0.1 and 1 mg/kg P.O., Compound 13 1, 10, and 100 mg/kg P.O., FIG. 28A", "experimental": "Another unwanted side effect of certain antipsychotics is hyperprolactinemia. To examine prolactin levels following the administration of a GPR52 agonist, male Sprague Dawley rats (Harlan Laboratories, San Diego, Calif.) were single-housed, handled, and moved to a private housing room one week prior to testing. Rats were individually handled and sham dosed P.O. for four days prior to testing. For an assessment of haloperidol (0.1 and 1 mg/kg P.O.) and Compound 13 (1, 10, and 100 mg/kg P.O.) on basal prolactin release, rats were dosed with acidic 20% HP-β-cyclodextrin (HBCD) or compound at 3 mL/kg P.O. in their housing room 60 minutes prior to harvest. For interaction studies, rats were dosed with 20% HBCD or Compound 13 (10 mg/kg P.O.) 90 minutes prior to harvest, and additionally with 20% HBCD vehicle or haloperidol (0.3 and 1 mg/kg P.O.) 60 minutes prior to harvest. Rats were individually taken to the harvest room, and trunk blood was collected into 4 mL EDTA tubes following live decapitation. Samples were stored on wet ice until collection was complete, then spun in a cooling centrifuge at 2400 rpm for 20 minutes. Plasma was collected and frozen for subsequent analysis using a Rat Prolactin ELISA kit (ALPCO Diagnostics: Cat#55-PRLRT-E01).\nBriefly, frozen plasma was thawed on ice and mixed prior to initiation of the ELISA. Twenty-five microliters of sample plasma along with serially diluted standards (lyophilized purified rat prolactin diluted with rat prolactin calibrator/sample diluent), and calibrator/sample diluent used as a blank were placed in a 96-well plate provided with the ELISA kit. Samples, blank, and standards were measured in duplicate. […] Fifty microliters of stop solution (2M hydrochloric acid) was added to the wells prior to reading on a 96-well plate reader (SpectraMax® 340PC; Molecular Devices, Sunnyvale, Calif.) at […]. The quantity of prolactin in each sample was calculated using a standard curve."}}, "data": [{"compound": "O=C(CCCN1CCC(O)(c2ccc(Cl)cc2)CC1)c1ccc(F)cc1", "note": "[haloperidol, reference compound]", "values": [{"measurement": "catalepsy: average latency to move both forepaws", "setting": "male Sprague-Dawley rats", "value": "increased"}, {"measurement": "prolactin levels", "setting": "male Sprague Dawley rats", "value": "increased"}]}]}
